Measurements reported in the supplement of paper PMC13380429.

Tests used:
Details in all cases: 72 h
U2OS [1] = assay: cell viability relative to DMSO; higher = less toxic
Vero E6 [2] = assay: as above
Calu-3 [3] = assay: as above
Caco-2 [4] = assay: as above
HepG2 [5] = assay: as above
U2OS [6] = assay: drug sensitivity score (DSS) for viability; higher = more toxic; extreme values may be limits of the assay
Vero E6 [7] = assay: as above
Calu-3 [8] = assay: as above
Caco-2 [9] = assay: as above
HepG2 [10] = assay: as above
U2OS [11] = assay: relative viability EC50 (midpoint between 100% and the lowest measured viability); higher = less toxic
Vero E6 [12] = assay: as above
Calu-3 [13] = assay: as above
Caco-2 [14] = assay: as above
HepG2 [15] = assay: as above

SMILES	cell viability (U2OS [1]; 1 nM)	cell viability (U2OS [1]; 10 nM)	cell viability (U2OS [1]; 100 nM)	cell viability (U2OS [1]; 1000 nM)	cell viability (U2OS [1]; 10000 nM)	cell viability (Vero E6 [2]; 1 nM)	cell viability (Vero E6 [2]; 10 nM)	cell viability (Vero E6 [2]; 100 nM)	cell viability (Vero E6 [2]; 1000 nM)	cell viability (Vero E6 [2]; 10000 nM)	cell viability (Calu-3 [3]; 1 nM)	cell viability (Calu-3 [3]; 10 nM)	cell viability (Calu-3 [3]; 100 nM)	cell viability (Calu-3 [3]; 1000 nM)	cell viability (Calu-3 [3]; 10000 nM)	cell viability (Caco-2 [4]; 1 nM)	cell viability (Caco-2 [4]; 10 nM)	cell viability (Caco-2 [4]; 100 nM)	cell viability (Caco-2 [4]; 1000 nM)	cell viability (Caco-2 [4]; 10000 nM)	cell viability (HepG2 [5]; 1 nM)	cell viability (HepG2 [5]; 10 nM)	cell viability (HepG2 [5]; 100 nM)	cell viability (HepG2 [5]; 1000 nM)	cell viability (HepG2 [5]; 10000 nM)	drug sensitivity score (U2OS [6])	drug sensitivity score (Vero E6 [7])	drug sensitivity score (Calu-3 [8])	drug sensitivity score (Caco-2 [9])	drug sensitivity score (HepG2 [10])	relative viability EC50 (U2OS [11])	relative viability EC50 (Vero E6 [12])	relative viability EC50 (Calu-3 [13])	relative viability EC50 (Caco-2 [14])	relative viability EC50 (HepG2 [15])
C#CCN[C@@H]1CCc2ccccc21 [rasagiline]	99.8%	105%	97.5%	106%	97.2%	106%	104%	102%	104%	97.1%	87%	96.3%	100%	97.3%	99.6%	97%	98%	91.5%	99%	94.2%	103%	117%	110%	104%	99.6%	0	0	0	0	0	> 10 µM	> 10 µM	> 10 µM	> 10 µM	> 10 µM
CNC(=O)c1cnn(-c2nc(N)c3ncn([C@@H]4O[C@H](CO)[C@@H](O)[C@H]4O)c3n2)c1 [regadenoson]	95.9%	92.1%	102%	99%	104%	101%	93.7%	86.2%	103%	111%	91.7%	104%	106%	102%	103%	101%	97.4%	91.1%	94.3%	108%	102%	105%	102%	90.7%	117%	0	0	0	0	0	> 10 µM	> 10 µM	> 10 µM	> 10 µM	> 10 µM
COc1ccc(S(=O)(=O)N2c3ccc(Cl)cc3[C@](O)(c3ccccc3Cl)[C@@H]2C(=O)N2CCC[C@H]2C(N)=O)cc1OC [relcovaptan]	103%	105%	102%	105%	99.2%	103%	99.8%	92.4%	97.2%	97.5%	91.8%	100%	93.3%	108%	86.7%	102%	102%	91.6%	102%	87.5%	108%	99.4%	108%	98.8%	94.3%	0	0	0	0	0	> 10 µM	> 10 µM	> 10 µM	> 10 µM	> 10 µM
O=C(O)c1cc(O)c2c(c1)C(=O)c1cccc(O)c1C2=O [rhein]	103%	98.4%	99%	98.2%	102%	98.7%	92.7%	95.5%	99.1%	99.2%	90%	96.6%	106%	98.5%	111%	100%	102%	97.6%	95.7%	98.1%	110%	95.5%	106%	93.3%	88.6%	0	0	0	0	0.2	> 10 µM	> 10 µM	> 10 µM	> 10 µM	> 10 µM
CCC(=O)[C@@]1(C)[C@H](C)C[C@H]2[C@@H]3CCC4=CC(=O)C=C[C@]4(C)[C@H]3[C@@H](O)C[C@@]21C [rimexolone]	99.8%	98.9%	100%	95.5%	97%	93.8%	95.2%	90%	94.7%	100%	98.4%	99%	89.4%	102%	96.4%	85.5%	90.5%	101%	88.8%	107%	86.3%	102%	95.4%	112%	92.8%	0	0	0	0	0	> 10 µM	> 10 µM	> 10 µM	> 10 µM	> 10 µM
NC(=O)c1ccc(F)c2c1C[C@@H](N(C1CCC1)C1CCC1)CO2 [robalzotan]	102%	107%	97.7%	105%	99.1%	102%	99.8%	107%	94.4%	103%	98.8%	110%	94.5%	91.2%	97.7%	92.7%	98.3%	97.5%	105%	99.5%	105%	101%	99.5%	96.9%	100%	0	0	0	0	0	> 10 µM	> 10 µM	> 10 µM	> 10 µM	> 10 µM
CC1CCC(NC(=O)N(CCCl)N=O)CC1 (stereo not given) [semustine]	98.8%	96.6%	99.6%	99.5%	99.9%	106%	99.6%	105%	104%	99.8%	98.5%	110%	87%	97.2%	99.4%	99.1%	103%	104%	91.1%	91.7%	96.3%	108%	92.3%	107%	91.8%	0	0	0	0	0	> 10 µM	> 10 µM	> 10 µM	> 10 µM	> 10 µM
CC1=C(C)C(=O)C(C(CCCCCC(=O)O)c2ccccc2)=C(C)C1=O (stereo not given) [seratrodast]	99.8%	95.7%	99.6%	93.2%	98.5%	97.7%	99.5%	96.4%	96.9%	98.2%	104%	91%	99%	99.2%	104%	91%	92.7%	104%	90.4%	95.3%	98.7%	98.7%	101%	98.1%	103%	0	0	0	0	0	> 10 µM	> 10 µM	> 10 µM	> 10 µM	> 10 µM
N[C@@H]1CN(c2c(F)cc3c(=O)c(C(=O)O)cn([C@@H]4C[C@@H]4F)c3c2Cl)CC12CC2 [sitafloxacin]	104%	96.3%	96%	95.8%	96.8%	91.3%	98%	91.6%	99%	106%	98.5%	94%	98%	96.7%	93.9%	95.2%	95.6%	91.6%	106%	97.2%	107%	101%	97.5%	110%	108%	0	0	0	0	0	> 10 µM	> 10 µM	> 10 µM	> 10 µM	> 10 µM
C[C@@H]1CN(Cc2ccc(F)cc2)[C@@H](C)CN1C(=O)c1cc2c(C(=O)C(=O)N(C)C)cn(C)c2cc1Cl [talmapimod]	106%	101%	103%	96.9%	90.6%	96.1%	103%	93.5%	84.6%	85%	106%	101%	99.8%	92.9%	100%	103%	99.2%	90.4%	86.4%	91.8%	112%	108%	100%	104%	104%	0	2.1	0	1.5	0	> 10 µM	> 10 µM	> 10 µM	> 10 µM	> 10 µM
Cc1ccc2c(c1CCC(=O)O)CC[C@@H](NS(=O)(=O)c1ccc(Cl)cc1)C2 [terutroban]	97.1%	96.7%	94.4%	99.5%	93.2%	96.8%	97.6%	95.6%	94.6%	95.8%	93.2%	85.6%	92.8%	105%	97.7%	93%	97.4%	100%	102%	92.2%	102%	90.7%	95.1%	103%	96.3%	0	0	0	0	0	> 10 µM	> 10 µM	> 10 µM	> 10 µM	> 10 µM
CN(C)[C@@H]1C(O)=C(C(N)=O)C(=O)[C@@]2(O)C(O)=C3C(=O)c4c(O)cccc4[C@@](C)(O)[C@H]3C[C@@H]12 [tetracycline]	104%	98.5%	102%	95%	97.2%	100%	102%	100%	101%	95.5%	99.6%	106%	100%	107%	108%	101%	88.2%	98.8%	97.1%	93.8%	107%	96.4%	107%	108%	95.4%	0	0	0	0	0	> 10 µM	> 10 µM	> 10 µM	> 10 µM	> 10 µM
Cn1cnc2c1c(=O)[nH]c(=O)n2C [theobromine]	92.6%	101%	95.7%	97.6%	100%	101%	92.7%	103%	98%	103%	91.3%	90.3%	100%	97.4%	98.8%	99.1%	110%	106%	121%	104%	87.6%	79.8%	99.3%	95.7%	95.6%	0	0	0	0	0	> 10 µM	> 10 µM	> 10 µM	> 10 µM	> 10 µM
O=c1sn(-c2cccc3ccccc23)c(=O)n1Cc1ccccc1 [tideglusib]	98%	101%	103%	102%	97%	97%	96.8%	97%	93.9%	100%	108%	97.7%	106%	99%	97.2%	95.6%	90.2%	102%	98.9%	110%	90.7%	106%	100%	98.8%	103%	0	0	0	0	0	> 10 µM	> 10 µM	> 10 µM	> 10 µM	> 10 µM
